These results are taken from US4665056A, “Dihydroorotic acid derivative and processes for preparing the same” (Tanabe Seiyaku Co., Ltd., priority 1984, dated 1987).

Data set [1] has as its system male STD/ddY mice. Kind of data set: Antagonistic effect on reserpine-induced hypothermia, oral administration. The data set is classed as in vivo. The settings on record: TRH tartrate taken as 1, parallel line assay method. How it is done: (§1) The pharmacological activities of test compounds estimated by oral administration.
(§2) A test compound dissolved in distilled water was orally administered to the mice, and the rectal temperature was measured 30, 60, 120, 180 and 300 minutes after the administration of the test compound. The increase in the body temperature of the medicated group of mice was compared with that of the control group of mice which received distilled water instead of the test compound solution.

The subject of data set [2] is male STD/ddY mice. Kind of data set: Increasing effect on spontaneous locomotor activity, oral administration. The data set is classed as in vivo. The settings on record: activity measured for 3 hours. The procedure:
as §1
(§3) Male STD/ddY mice were individually placed in Ambulometer (i.e., an apparatus for measuring spontaneous locomotor activity; manufactured by OHARA IKA Co.) for 30 minutes to acclimatize to the apparatus. Thereafter, a test compound dissolved in distilled water was orally administered to the mice and, immediately after administration of the test compound, the spontaneous locomotor activity was measured for 3 hours. Distilled water was administered to the control group of mice instead of the test compound solution.

In data set [3] the test system is male STD/ddY mice. Kind of data set: Antagonistic effect on pentobarbital anesthesia, oral administration. The data set is classed as in vivo. The settings on record: oral administration 15 min before pentobarbital sodium 55 mg/kg i.p. How it is done:
as §1
A test compound dissolved in distilled water was orally administered to male STD/ddY mice. Fifteen minutes after the administration of the test compound, pentobarbital sodium was intraperitoneally administered to the mice at a dose of 55 mg/kg. The duration of anesthesia was measured as the time from the disappearance of righting reflex to the recovery thereof. Distilled water was administered to the control group of mice instead of the test compound solution.

For data set [4], the system named is male STD/ddY mice. Kind of data set: Antagonistic effect on reserpine-induced hypothermia, intraperitoneal administration. The data set is classed as in vivo. To be noted: TRH taken as 1, parallel line assay method. How it is done: as §2
(§4) The pharmacological activities of test compounds estimated by parenteral administration.
(§5) The experiments were carried out in the same manner as described in Experiment 1 except that a test compound dissolved in a physiological saline solution was administered intraperitoneally to mice and, in estimating the increasing effect on spontaneous locomotor activity, said spontaneous locomotor activity was measured for 60 minutes immediately after administration of the test compound.

Data set [5] has as its system male STD/ddY mice. Kind of data set: Increasing effect on spontaneous locomotor activity, intraperitoneal administration. Type of data set: in vivo. The settings on record: measured for 60 minutes, TRH taken as 1. The procedure:
as §3, §4, §5

Data set [6] has as its system male STD/ddY mice. Kind of data set: Antagonistic effect on pentobarbital anesthesia, intravenous administration. The data set is classed as in vivo. The settings on record: intravenous administration 10 min after pentobarbital sodium 55 mg/kg i.p., TRH taken as 1. The procedure:
as §4
Pentobarbital sodium was intraperitoneally administered to male STD/ddY mice at a dose of 55 mg/kg. Ten minutes after the administration of pentobarbital sodium, a test compound dissolved in a physiological saline solution was intravenously administered to the mice which had lost the righting reflex. The duration of anesthesia was measured as the time from the end of administration of the test compound until the righting reflex regained. A physiological saline solution was administered to the control group of mice instead of the test compound solution.

Data set [7] deals with male STD/ddY mice. The experiment in a line: Potentiating effect on action of Dopamine (L-Dopa in reserpinized mice). Type of data set: in vivo. To be noted: intraperitoneal administration, reserpine 3 mg/kg s.c. and L-Dopa 200 mg/kg i.p., TRH taken as 1. How it is done: as §4
Reserpine was subcutaneously administered to male STD/ddY mice at a dose of 3 mg/kg, and about 16 to 20 hours later, L-Dopa was intraperitoneally administered to the mice at a dose of 200 mg/kg. Thirty minutes after administration of L-Dopa, a test compound dissolved in a physiological saline solution was administered intraperitoneally to the mice (when TRH was used as the test compound, it was administered 45 minutes after administration of L-Dopa). Spontaneous locomotor activity was measured by ANIMEX (i.e., an apparatus for mesuring spontaneous locomotor activity; manufactured by FERAD Co.) for 15 minutes starting from one hour after administration of L-Dopa. A physiological saline solution was administered to the control group of mice instead of the test compound solution.

In data set [8] the test system is male JCL:SD rats. The experiment in a line: TSH-releasing activity (side effect), serum TSH by radioimmunoassay. The data set is classed as in vivo. The settings on record: intravenous administration, serum TSH 15 min after, TRH taken as 1, parallel line assay method. How it is done: A test compound dissolved in a 0.1% BSA (bovine serum albumin)-containing physiological saline solution was intravenously administered to male JCL:SD rats. Fifteen minutes after the administration, blood was taken from the abdominal aorta under anesthesia. Serum TSH levels were determined by the double-antibody radioimmunoassay method (Midgley et al., Endocrinology., 79, 10 (1966)). The BSA-containing physiological saline solution was administered to the control group of rats instead of the test compound solution.

Data set [9] deals with male STD/ddY mice. The experiment in a line: Acute toxicity (LD50), intravenous. The settings on record: mortality 24 hours after administration. Type of data set: in vivo. The procedure: A test compound was intravenously administered to male STD/ddY mice and the acute toxicity (LD50) thereof was determined from mortality of mice 24 hours after administration of the test compound.

The subject of data set [10] is male STD/ddY mice. To be noted: published data (Brain Research Reviews 4, 389 (1982)); cited from earlier work.
Data set [11] has as its system male JCL:SD rats. The settings on record: TRH taken as 1; cited from earlier work.

In the case of `CN1C(=O)C[C@@H](C(=O)N[C@@H](Cc2c[nH]cn2)C(=O)N2CCC[C@H]2C(N)=O)NC1=O` [The compound of the present invention, (1-methyl-L-4,5-dihydroorotyl)-L-histidyl-L-prolinamide], the “Therapeutic activity by oral administration” value is “excellent therapeutic activity even by oral administration”. For the same molecule, the “Potency ratio to TRH tartrate, antagonistic effect on reserpine-induced hypothermia” value (“Potency ratio to TRH tartrate” for short) in the data set with male STD/ddY mice [1] is given as 91.3. The “Minimum effective dose, increasing effect on spontaneous locomotor activity” value with male STD/ddY mice [2] turned out to be 10 mg/kg. Moreover, the “Minimum effective dose, antagonistic effect on pentobarbital anesthesia” value with male STD/ddY mice [3] turned out to be 1 mg/kg. Moreover, in the data set on male STD/ddY mice [4], the “Potency ratio to TRH, antagonistic effect on reserpine-induced hypothermia” value is on record as 31.4. Further, the “Potency ratio to TRH, increasing effect on spontaneous locomotor activity” value (from here on “Potency ratio to TRH, increasing effect”) in the data set on male STD/ddY mice [5] was 27.4. In addition, the “Potency ratio to TRH, antagonistic effect on pentobarbital anesthesia” value (“Potency ratio … on pentobarbital anesthesia” below) in the data set with male STD/ddY mice [6] amounted to 2.7. Moreover, the “Potency ratio to TRH, potentiating effect on action of Dopamine” value (shortened to “Potency ratio to TRH … of Dopamine”) with male STD/ddY mice [7] turned out to be 18.5. The “Potency ratio to TRH, TSH-releasing activity” value in the data set with male JCL:SD rats [8] is reported as 1/30. In the data set on male STD/ddY mice [9], the LD50 is on record as 1589 mg/kg, i.v.
For the molecule `NC(=O)[C@@H]1CCCN1C(=O)[C@H](Cc1cnc[nH]1)NC(=O)[C@@H]1CCC(=O)N1` [TRH, L-pyroglutamyl-L-histidyl-L-prolinamide], the “Therapeutic activity by oral administration” value is “no substantial therapeutic effects”. For the same molecule, the “LD50 (published data)” value in the data set with male STD/ddY mice [10] is listed as 1450 mg/kg, i.v.
Regarding `NC(=O)[C@@H]1CCCN1C(=O)[C@H](Cc1c[nH]cn1)NC(=O)c1cc(=O)[nH]c(=O)[nH]1` [No. 2, Orotyl-L-histidyl-L-prolinamide], the “Potency ratio to TRH tartrate” value in the data set on male STD/ddY mice [1] was found to be 13.0. In addition, in the data set on male STD/ddY mice [4], the “Potency ratio to TRH, antagonistic effect on reserpine-induced hypothermia” value is on record as 7.4. The “Potency ratio to TRH, increasing effect” value with male STD/ddY mice [5] is given as 3.8. In the data set with male STD/ddY mice [6], the “Potency ratio … on pentobarbital anesthesia” value came out at 1.9. The “Potency ratio to TRH … of Dopamine” value in the data set on male STD/ddY mice [7] turned out to be 2.6. Moreover, the “LD50 (published data)” value in the data set on male STD/ddY mice [10] is reported as 1200 mg/kg, i.v.
For the molecule `NC(=O)[C@@H]1CCCN1C(=O)[C@H](Cc1c[nH]cn1)NC(=O)[C@@H]1CCC(=O)O1` [No. 1, (2,3,4,5-tetrahydro-2-oxo-L-5-furancarbonyl)-L-histidyl-L-prolinamide], the “Potency ratio to TRH tartrate” value in the data set with male STD/ddY mice [1] amounted to 3.4. The “Potency ratio to TRH, antagonistic effect on reserpine-induced hypothermia” value in the data set on male STD/ddY mice [4] turned out to be 5.7. Also, the “Potency ratio to TRH, increasing effect” value in the data set with male STD/ddY mice [5] was found to be 3.5. Besides, the “Potency ratio … on pentobarbital anesthesia” value in the data set with male STD/ddY mice [6] is recorded as 1.3. Moreover, the “Potency ratio to TRH … of Dopamine” value with male STD/ddY mice [7] was found to be 2.5. Further, the “Potency ratio to TRH, TSH-releasing activity (published data)” value with male JCL:SD rats [11] was 1/40.
For `NC(=O)[C@@H]1CCCN1C(=O)[C@H](Cc1cnc[nH]1)NC(=O)[C@@H]1CCC(=O)N1.O=C(O)C(O)C(O)C(=O)O` [TRH tartrate], the “Minimum effective dose, increasing effect on spontaneous locomotor activity” value in the data set on male STD/ddY mice [2] is reported as greater than 100 mg/kg. The “Minimum effective dose, antagonistic effect on pentobarbital anesthesia” value with male STD/ddY mice [3] is recorded as greater than 100 mg/kg.
